Experimental data taken from patent US10259808B2 (Genentech, Inc., priority 2015, dated 2019).

Molecular target: T1, RORc ligand binding domain (Homo sapiens, UniProt P51449)
T1 sequence (P51449 269-508 limits assumed): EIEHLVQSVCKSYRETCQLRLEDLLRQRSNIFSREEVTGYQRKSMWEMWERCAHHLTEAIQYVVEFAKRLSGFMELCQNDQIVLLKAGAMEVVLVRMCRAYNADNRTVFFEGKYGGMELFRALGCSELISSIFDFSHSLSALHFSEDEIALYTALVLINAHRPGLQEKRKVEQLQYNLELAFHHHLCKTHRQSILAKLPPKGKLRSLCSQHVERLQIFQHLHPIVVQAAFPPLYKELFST
Test: In vitro RORc ligand binding assay (25-[3H]hydroxycholesterol displacement)

Structure (SMILES) | IC50
C[C@H]1CC[C@H](c2ccccc2)S(=O)(=O)N1Cc1cc(F)c([C@]2(c3n[nH]c(=O)o3)C[C@](C)(F)C2)cc1F [Example 139, trans 5-[1-[2,5-difluoro-4-[[(3S,6R)-3-methyl-1,1-dioxo-6-phenyl-thiazinan-2-yl]methyl]phenyl]-3-fluoro-3-methyl-cyclobutyl]-3H-1,3,4-oxadiazol-2-one] | 3.9 nM
C[C@H]1CC[C@H](c2ccccc2)S(=O)(=O)N1Cc1cc(F)c([C@]2(NCC3(C)COC3)C[C@](C)(O)C2)cc1F (racemic) [Example 187, 3-[2,5-difluoro-4-[[rac-(3S,6R)-3-methyl-1,1-dioxo-6-phenyl-thiazinan-2-yl]methyl]phenyl]-1-methyl-3-[(3-methyloxetan-3-yl)methylamino]cyclobutanol] | 10 nM
CO[C@H]1C[C@@](c2n[nH]c(=O)o2)(c2cc(F)c(CN3[C@@H](C)CC[C@H](c4ccccc4)S3(=O)=O)cc2F)C1 [Example 154, trans 5-[1-[2,5-difluoro-4-[[(3S,6R)-3-methyl-1,1-dioxo-6-phenyl-thiazinan-2-yl]methyl]phenyl]-3-methoxy-cyclobutyl]-3H-1,3,4-oxadiazol-2-one] | 6.2 nM
C[C@H]1CC[C@H](c2ccccc2)S(=O)(=O)N1Cc1cc(F)c(C2(NCc3cocn3)COC2)cc1F [Example 85, 3-[2,5-difluoro-4-[[(3S,6R)-3-methyl-1,1-dioxo-6-phenyl-thiazinan-2-yl]methyl]phenyl]-N-(oxazol-4-ylmethyl)oxetan-3-amine] | 4.1 nM
C[C@H]1CC[C@H](c2ccccc2)S(=O)(=O)N1Cc1cc(F)c(C2(Nc3ncccn3)COC2)cc1F [Example 101, N-[3-[2,5-difluoro-4-[[(3S,6R)-3-methyl-1,1-dioxo-6-phenyl-thiazinan-2-yl]methyl]phenyl]oxetan-3-yl]pyrimidin-2-amine] | 60.7 nM

More lines, now with the values ahead:

IC50 | Structure (SMILES)
9.4 nM | CNC(=O)c1nc(CNC(=O)C2(c3ccc(CN4[C@@H](C)CC[C@H](c5ccccc5)S4(=O)=O)c(F)c3)CCOCC2)no1 [Example 15, 3-[[[4-[3-fluoro-4-[[(3S,6R)-3-methyl-1,1-dioxo-6-phenyl-thiazinan-2-yl]methyl]phenyl]tetrahydropyran-4-carbonyl]amino]methyl]-N-methyl-1,2,4-oxadiazole-5-carboxamide]
44 nM | Cc1cc(C(=O)NC2(c3cc(F)c(CN4[C@@H](C)CC[C@H](c5ccccc5)S4(=O)=O)cc3F)CCOCC2)no1 [Example 93, N-[4-[2,5-difluoro-4-[[(3,6R)-3-methyl-1,1-dioxo-6-phenyl-thiazinan-2-yl]methyl]phenyl]tetrahydropyran-4-yl]-5-methyl-isoxazole-3-carboxamide]
55.3 nM | C[C@H]1CC[C@H](c2ccccc2)S(=O)(=O)N1Cc1cc(F)c(C2(N3CCOC3=O)CCOCC2)cc1F [Example 102, 3-[4-[2,5-difluoro-4-[[(3S,6R)-3-methyl-1,1-dioxo-6-phenyl-thiazinan-2-yl]methyl]phenyl]tetrahydropyran-4-yl]oxazolidin-2-one]
142 nM | Cc1nnc(C2(c3ccc(CN4[C@@H](C)CC[C@H](c5ccccc5)S4(=O)=O)c(F)c3)CCOCC2)o1 [Example 43, (3S,6R)-2-[[2-fluoro-4-[4-(5-methyl-1,3,4-oxadiazol-2-yl)tetrahydropyran-4-yl]phenyl]methyl]-3-methyl-6-phenyl-thiazinane 1,1-dioxide]
63.6 nM | C[C@H]1CC[C@H](c2ccccc2)S(=O)(=O)N1Cc1ccc(C2(c3noc(CO)n3)CCOCC2)cc1F [Example 29, [3-[4-[3-fluoro-4-[[(3S,6R)-3-methyl-1,1-dioxo-6-phenyl-thiazinan-2-yl]methyl]phenyl]tetrahydropyran-4-yl]-1,2,4-oxadiazol-5-yl]methanol]
35.6 nM | C[C@H]1CC[C@H](c2ccccc2)S(=O)(=O)N1Cc1cc(F)c(C2(NC(=O)c3cocn3)COC2)cc1F [Example 96, N-[3-[2,5-difluoro-4-[[(3S,6R)-3-methyl-1,1-dioxo-6-phenyl-thiazinan-2-yl]methyl]phenyl]oxetan-3-yl]oxazole-4-carboxamide]
